According to patent US20200062696A1, “COMPOSITIONS AND METHODS FOR INHIBITING RETICULON 4” (THE REGENTS OF THE UNIVERSITY OF CALIFORNIA, priority 2017, published 2020):

System: SW620 tumor xenograft
Assay: SW620 tumor xenograft growth in immune-deficient SCID mice
Type: in vivo
Settings: 50 mg/kg ip once per day, started ten days after subcutaneous injection of SW620 cells
Description: Tumor Xenograft Growth Studies. C.B17 SCID male mice (6-8 weeks old) were injected subcutaneously into the flank with 2,000,000 cells in serum-free media. For pharmacological treatments, mice were exposed by intraperitoneal (ip) injection with either vehicle (18:1:1 PBS/ethanol/PEG40) or 50 mg/kg DKM 3-30 once per day starting ten days after the initiation of the xenograft experiment and until the completion of the study. Tumors were measured every 7 days by caliper measurements. Animal experiments were conducted in accordance with the guidelines of the Institutional Animal Care and Use Committee of the University of California, Berkeley.

C=CC(=O)Nc1ccc(Oc2ccc(Cl)cc2)cc1 [DKM 3-30, N-(4-(4-chlorophenoxy)phenyl)acrylamide]
tumor xenograft growth: initial regression and a sustained impairment in tumor growth
